From patent US20250057813A1, “APOPTOSIS RELATED PROTEIN IN THE TGF-BETA SIGNALING PATHWAY (ARTS) MIMETIC COMPOUNDS, COMPOSITIONS, METHODS AND USES THEREOF IN INDUCTION OF APOPTOSIS” (Carmel-Haifa University Economic Corporation Ltd., priority 2022, published 2025)

Legend:
[1] = system: MG-63 osteosarcoma cell line; assay: Dose response of cell death with B3 relative to DMSO; assay type: cell-based; conditions: increasing doses of B3
[2] = target: T1, binding between ARTS and p53 (Mus musculus, UniProt P02340); assay: Co-immuno-precipitation between ARTS and p53 in Sept4/ARTS KO MEFs; assay type: cell-based; conditions: B3 for 24 hrs
T1 construct: expressed in transfected cells; host or cells: Sept4/ARTS KO MEFs (per the earlier reading)
T1 sequence (P02340 whole entry): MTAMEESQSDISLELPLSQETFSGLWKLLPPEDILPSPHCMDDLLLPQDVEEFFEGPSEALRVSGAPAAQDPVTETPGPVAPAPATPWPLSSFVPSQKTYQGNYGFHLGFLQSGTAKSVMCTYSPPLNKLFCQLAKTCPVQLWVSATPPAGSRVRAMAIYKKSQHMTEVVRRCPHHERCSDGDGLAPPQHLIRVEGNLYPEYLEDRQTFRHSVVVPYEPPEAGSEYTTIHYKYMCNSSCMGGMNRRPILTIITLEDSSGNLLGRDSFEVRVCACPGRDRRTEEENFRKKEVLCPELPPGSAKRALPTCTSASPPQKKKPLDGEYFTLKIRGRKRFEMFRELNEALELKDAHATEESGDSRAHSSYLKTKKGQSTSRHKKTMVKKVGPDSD
Procedure: Cells were harvested and lysed with radioimmunoprecipitation assay (RIPA) buffer (Tris-HCl pH 7.5 50 mM, NaCl 150 mM, NP-40 (Igepal) 0.3%) containing protease inhibitor cocktail (Complete, Roche) and 100 μg/ml PMSF. Antibodies were used at 5 μg per […] protein and incubated overnight, rotating at 4° C. The next day, agarose beads conjugated to protein A/G (Santa Cruz Biotechnology) were added for 4 h with rotation at 4° C. Samples were centrifuged at 4° C. for 5 min and washed five times with RIPA buffer. Proteins were eluted from beads by 10 min of boiling in sample buffer and separated on 12% SDS-PAGE gel, followed by Western blot analysis.

binding between ARTS and p53 [2]: reduces
SMILES: Cn1ccnc1C(=O)c1ccc(NC(=O)C(=O)N[C@H](CO)Cc2ccccc2)cc1 [B3, (S)-N1-(1-hydroxy-3-phenylpropan-2-yl)-N2-(4-(1-methyl-1H-imidazole-2-carbonyl)phenyl)oxalamide]
cell death [1]: dose-dependent death
